Measurements from US12510524B2, “Compositions containing cannabinoid analog conjugates and methods of use” (priority 2014, dated 2025).
“And” between values parts separate entries of the source, which are not always exact repeats. Identical values can stand only once. Like-named read-outs stand apart in the source and are kept apart here.

Assays:
DLBCL cancer cell lines = test: MTS cell viability assay, DLBCL cell lines as a group; assay type: cell-based; conditions: for effect on the viability of DLBCL cancer cell lines: EJ, U2932, CJ and LY19, 72 h incubation, FIGS. 13-16; for IC50: read-out: Average IC50
Description: (§1) The effects of SR141716 and VYR206 were analyzed. MTS assays for cell viability (72 h incubation) were performed on diffuse large B-cell lymphoma (DLBCL) cells—LR, MS, RC and DOHH2 (FIGS. 18A-18D) and mantle cell lymphoma (MCL) cells—Jeko, Mino, Rec-1 and JMP1 (FIGS. 19A-19D).

[1] = test system: 16 DLBCL and 8 MCL cell lines; test: High throughput screening of cell viability, all cell lines; assay type: cell-based; conditions: all cells tested; concentration range 0-5 μM; 72-hour incubation
Description: (§2) High throughput screening ([…]) assessment of cell viability in 16 DLBCL (FIGS. 20A and 20B) and 8 MCL (FIG. 20C) cell lines were assessed following treatment a 72-hour incubation of the cell lines with cannabidiol, which was obtained as CBD in a coconut oil extract. Cell viability, 90% of the all cells tested, remained viable in a concentration range of 0-5 μM CBD. Complete cell death was obtained at 25 μM CBD concentration only for two cancer cell lines, HT and EJ (FIG. 20B); 50 μM CBD concentration gave a complete cell death viability in seven cell lines MZ, HF, HB, CJ, MS, Toledo and EJ (FIGS. 20A and 20B).

HT cancer cell line = test: High throughput screening of cell viability, HT; assay type: cell-based; conditions: 72-hour incubation
Description: as §2

EJ cancer cell line = test: High throughput screening of cell viability, EJ; assay type: cell-based; conditions: 72-hour incubation
Description: as §2

MZ cell line = test: High throughput screening of cell viability, MZ; assay type: cell-based; conditions: 72-hour incubation
Description: as §2

HF cell line = test: High throughput screening of cell viability, HF; assay type: cell-based; conditions: 72-hour incubation
Description: as §2

HB cell line = test: High throughput screening of cell viability, HB; assay type: cell-based; conditions: 72-hour incubation
Description: as §2

CJ cell line = test: High throughput screening of cell viability, CJ; assay type: cell-based; conditions: 72-hour incubation
Description: as §2

MS cell line = test: High throughput screening of cell viability, MS; assay type: cell-based; conditions: 72-hour incubation
Description: as §2

Toledo cell line = test: High throughput screening of cell viability, Toledo; assay type: cell-based; conditions: 72-hour incubation
Description: as §2

LP cell line = test: High throughput screening of cell viability, LP; assay type: cell-based; conditions: 72-hour incubation, read-out: concentration range at which 50% cell viability was reached
Description: as §2

MCA cell line = test: High throughput screening of cell viability, MCA; assay type: cell-based; conditions: 72-hour incubation, read-out: concentration range at which 50% cell viability was reached
Description: as §2

MT cell line = test: High throughput screening of cell viability, MT; assay type: cell-based; conditions: 72-hour incubation, read-out: concentration range at which 50% cell viability was reached
Description: as §2

Cancer cell line DOHH2 = test: High throughput screening of cell viability, DOHH2; assay type: cell-based; conditions: lower concentration (0-25 μM)
Description: as §2

[2] = test system: mantle cell lymphoma cancer cells (Mino, Jeko, SP53, Maver-1Z138, JMP-1, Rec-1 and PF-1); test: High throughput screening of cell viability, MCL cell lines; assay type: cell-based; conditions: concentration range from 15 μM to 25 μM; FIG. 20C
Description: as §2

CB2 receptor expression = test: Blot analysis of CB2 expression in DLBCL and MCL cell lines; assay type: cell-based; conditions: FIGS. 21B and 21C
Description: The effect of different amounts of combinations of VYR206 and CBD on various DLBCL and MCL cell lines were evaluated by immunoblot analysis. Immunoblot analysis of cell lysates from various DLBCL and MCL cell lines was performed to show effects on expression of CBi and CB2 receptors with the expression of β-actin as the control for sample loading (FIGS. 21A-21D), with each cell line identified by respective initials.

[3] = test system: DLBCL (RC) and MCL (Mino) cancer cell lines; test: MTS cell viability assay, CBD alone and in combination with chemotherapeutics; assay type: cell-based; conditions: at the given amounts, 72 h incubation
Description: (§4) The formazan dye is quantified by measuring the absorbance at 490-500 nm.
Cell viability assays (MTS) were performed to determine the viability of DLBCL (RC) and MCL (Mino) cancer cell lines in vitro (72 hour-incubation) in the presence of CB2-agonist—CBD alone and in combination with ibrutinib. Cell viability assays (MTS) were performed to determine the viability of DLBCL (RC) and MCL (Mino) cancer cell lines in vitro (72 h incubation) in the presence of CBD alone and in combination with zanubrutinib (BGB). Cell viability assays (MTS) were performed to determine the viability of DLBCL (RC) and MCL (Mino) cancer cell lines in vitro (72 h incubation) in the presence of CBD alone and in combination with carfilzomib (CFZ). Cell viability assays (MTS) were performed to determine the viability of DLBCL (RC) and MCL (Mino) cancer cell lines in vitro (72 h incubation) in the presence CBD alone and in combination with tumorex (TMX).

cleaved PARP in RC cells = test: Immunoblot of apoptosis induction in RC cells; assay type: cell-based; conditions: 24 hrs
[4] = test system: cleaved caspase 3 and cleaved PARP in BJAB cells; test: Western analysis of apoptosis induction in BJAB cells; assay type: cell-based; conditions: 24 hrs
Description: No activation of apoptosis in untreated cells (control not shown). […] At 12.5 μM CBD, there was significant apoptosis induction in cleaved PARP expression. The effect of CBD on both cleaved caspase 3 (FIG. 27C) and cleaved PARP expression (FIG. 27D) was analyzed using Western analysis. Expression of the β-actin (FIG. 27E) was used as a control for equal loading.

[5] = test system: EJ DLBCL cancer cell line; test: MTS cell viability assay, EJ; assay type: cell-based; conditions: read-out: IC50 on cell viability
Description: as §4

[6] = test system: CJ DLBCL cancer cell line; test: MTS cell viability assay, CJ; assay type: cell-based; conditions: read-out: IC50 on cell viability
Description: as §4

[7] = test system: LY19 DLBCL cancer cell line; test: MTS cell viability assay, LY19; assay type: cell-based; conditions: for IC50: read-out: IC50 on cell viability
Description: as §4

HF DLBCL cell line = test: MTS cell viability assay, HF; assay type: cell-based; conditions: read-out: IC50 on cell viability
Description: as §4

McA DLBCL cell line = test: MTS cell viability assay, McA; assay type: cell-based; conditions: 72 h, read-out: IC50 on cell viability
Description: as §4

MS DLBCL cell line = test: MTS cell viability assay, MS; assay type: cell-based; conditions: 72 h
Description: as §1

LY-10 DLBCL cell line = test: MTS cell viability assay, LY-10; assay type: cell-based; conditions: read-out: IC50 on cell viability
Description: as §4

Ly-3 DLBCL cell line = test: MTS cell viability assay, Ly-3; assay type: cell-based; conditions: read-out: IC50 on cell viability
Description: as §4

LP DLBCL cell line = test: MTS cell viability assay, LP; assay type: cell-based; conditions: read-out: IC50 on cell viability
Description: as §4

LR DLBCL cell line = test: MTS cell viability assay, LR; assay type: cell-based; conditions: for IC50: read-out: IC50 on cell viability
Description: as §1

HB DLBCL cell line = test: MTS cell viability assay, HB; assay type: cell-based; conditions: read-out: IC50 on cell viability
WP DLBCL cell line = test: MTS cell viability assay, WP; assay type: cell-based; conditions: read-out: IC50 on cell viability
RC DLBCL cell line = test: MTS cell viability assay, RC; assay type: cell-based; conditions: drug concentration 50 μM, 72 h
Description: as §1

DOHH2 DLBCL cell line = test: MTS cell viability assay, DOHH2; assay type: cell-based; conditions: Homo sapiens, DOHH-2, 72 h
Description: as §1

[8] = test system: diffuse large B-cell lymphoma (DLBCL; 16 cancer cell lines); test: Cell viability, 16 DLBCL cancer cell lines (Example 6); assay type: cell-based; conditions: 16 DLBCL cell lines; compared with VYR206; FIG. 17A
Description: (§3) In Examples 6-8, N4-conjugated compounds were analyzed. The effects of CBi inverse agonist SR141716 and its conjugated form-VYR206 were analyzed using diffuse large B-cell lymphoma (DLBCL; 16 cancer cell lines; FIGS. 17A and 17B) and mantle cell lymphoma (MCL; 8 cell lines; FIGS. 17C and 17D) cancer cells. […] Diffuse large B-cell lymphoma cancer cells were resistant to lower VYR206 concentration (<50 μM) (FIG. 17B). […] Rimonabant by itself has severe adverse effects in patients with high or chronic dosing. Curtailing or modifying the potency may help to reduce adverse effects while still providing a therapeutic effect against cancerous cells.

[9] = test system: mantle cell lymphoma (MCL; 8 cell lines); test: Cell viability, 8 MCL cell lines (Example 6); assay type: cell-based; conditions: lower-dose 10-40 μM; steep initial slopes especially in Rec-1 and SP-53; FIG. 17C
Description: as §3

[10] = test system: U2932 DLBCL cancer cell line
Description: as §4

[11] = read-out: concentration range at which 50% cell viability was reached

`CN1CCCCC1Cn1cc(C(=O)c2cc([N+](=O)[O-])ccc2I)c2ccccc21` (centres unmarked) [AM 1241] was tested, and the “effect on the viability of DLBCL cancer cell lines” value (“effect on the viability” below) (DLBCL cancer cell lines; MTS) was “significant effect”.
`C=C(C)[C@@H]1CCC(C)=C[C@H]1c1c(O)cc(CCCCC)cc1O` [CBD, cannabidiol] was tested, and the “viability response compared with VYR206” value (DLBCL cancer cell lines; LY19 and LR, alone and in combination, MTS, 72 h) was “generally the same response as VYR206”, the cell viability [1] was 90% and the “concentration giving complete cell death” value (HT cancer cell line) was 25 µM. For the same compound, the “concentration giving complete cell death” value (EJ cancer cell line) was 50 µM and 25 µM, the IC50 (EJ cancer cell line; [11]) was 15 to 20 µM and the “concentration giving complete cell death” value (MZ cell line) was 50 µM. The IC50 (MZ cell line; [11]) was 15 to 20 µM, the “concentration giving complete cell death” value (HF cell line) was 50 µM and the “concentration giving complete cell death” value (HB cell line) was 50 µM. For the same compound, the IC50 (HB cell line; [11]) was 15 to 20 µM, the “concentration giving complete cell death” value (CJ cell line) was 50 µM and the IC50 (CJ cell line; [11]) was 15 to 20 µM. For the same compound, the “concentration giving complete cell death” value (MS cell line) was 50 µM, the “concentration giving complete cell death” value (Toledo cell line) was 50 µM and the IC50 (LP cell line) was 15 to 20 µM. For the same compound, the IC50 (MCA cell line) was 15 to 20 µM, the IC50 (MT cell line) was 15 to 20 µM and the susceptibility (Cancer cell line DOHH2) was “less susceptible”. For the same compound, the “sensitivity of MCL cancer cells” value [2] was “less sensitive”, the CB2 expression (CB2 receptor expression) was “modulation” and the “viability, agents individually” value [3] was “modest reduction in viability”. For the same compound, the “concentration with significant apoptosis induction in cleaved PARP expression” value (cleaved PARP in RC cells) was 12.5 µM, the “concentration with significant apoptosis induction in cleaved PARP expression” value [4] was 12.5 µM and the “cleaved caspases 3 and cleaved PARP” value ([4]; increasing concentration) was “concentration-dependent increase”.
With `CCNC1(C(N)=O)CCN(c2ncnc3c2nc(-c2ccccc2Cl)n3-c2ccc(Cl)cc2)CC1` [CP945,598] the “effect on the viability” value (DLBCL cancer cell lines; MTS) was “significant results depending on the specific cell line”.
`Cc1c(C(=O)NN2CCCCC2)nn(-c2ccc(Cl)cc2Cl)c1-c1ccc(Cl)cc1` [SR141716, N-(Piperidin-1-yl)-5-(4-chlorophenyl)-1-(2,4-dichlorophenyl)-4-methyl-1H-pyrazole-3-carboxamide] gave an IC50 ([5]; 72 h) of 20.6 µM, an IC50 ([6]; 72 h) of 13.5 µM and an IC50 ([7]; 72 h) of 15.2 µM. The “effect on viability, comparison between cell lines” value ([7]; LY19, MTS, 72 h incubation) was “more potent effect on LY19”, the IC50 (HF DLBCL cell line; 72 h) was 32.7 µM and the IC50 (McA DLBCL cell line) was 21.8 µM. The IC50 (MS DLBCL cell line; read-out: IC50 on cell viability) was 23.7 µM, the “induction of cell death” value (MS DLBCL cell line; MS, drug concentration 50 μM, MTS) was < 90% and the IC50 (LY-10 DLBCL cell line; LY10, 72 h) was 25.1 µM. It also gave an IC50 (Ly-3 DLBCL cell line; 72 h) of 25.2 µM, an IC50 (LP DLBCL cell line; 72 h) of 27.1 µM and an IC50 (LR DLBCL cell line; 72 h) of 30.9 µM. For the same compound, the “induction of cell death” value (LR DLBCL cell line; LR, drug concentration 50 μM, MTS, 72 h) was < 90%, the IC50 (HB DLBCL cell line; 72 h) was 29.4 µM and the IC50 (WP DLBCL cell line; 72 h) was 25.5 µM. For the same compound, the “effect on the viability” value (DLBCL cancer cell lines; MTS) was “significant results depending on the specific cell line”, the “effectiveness on DLBCL, comparison of the two drugs” value (DLBCL cancer cell lines; LR, MS, RC and DOHH2, MTS, 72 h) was “more effective to DLBCL than VYR206” and the IC50 (DLBCL cancer cell lines) was 24.4 µM. For the same compound, the “induction of cell death” value (RC DLBCL cell line) was < 90%, the inhibition at 50 µM (DOHH2 DLBCL cell line) was > 50% and the “cell viability of DLBCL” value [8] was “markedly decreased viability”. The “cell viability in MCL cell lines” value [9] was “reduction of cell viability” and the IC50 [10] was 26.2 µM.
With `C=C(C)[C@@H]1CCC(C)=C[C@H]1c1c(O)cc(CCCCC)cc1OCCCN1CCCNCCNCCCNCC1` [VYC203, N4-Cannabidiol] the “cleaved PARP expression” value (cleaved PARP in RC cells; 6.25, 12.5, 25 and 50 μM) was “Concentration-dependent increase”.
For `C=CC(=O)N1CCC[C@@H](n2nc(-c3ccc(Oc4ccccc4)cc3)c3c(N)ncnc32)C1` [ibrutinib], the IC50 ([5]; EJ, MTS, 72 h incubation) was 30 µM, the IC50 ([6]; CJ, MTS, 72 h incubation) was 25 µM and the IC50 ([7]; LY19, MTS, 72 h incubation) was 10 µM. The IC50 (HF DLBCL cell line; HF, MTS, 72 h incubation) was 18 µM, the IC50 (LY-10 DLBCL cell line; LY10, LY-10, MTS, 72 h incubation) was 0.5 µM and the IC50 (Ly-3 DLBCL cell line; Ly-3, MTS, 72 h incubation) was 20 µM. For the same compound, the IC50 (LP DLBCL cell line; LP, MTS, 72 h incubation) was 6 µM, the IC50 (LR DLBCL cell line; LR, MTS, 72 h incubation) was 20 µM and the IC50 (HB DLBCL cell line; HB, MTS, 72 h incubation) was 20 µM. For the same compound, the IC50 (WP DLBCL cell line; WP, MTS, 72 h incubation) was 1 µM, the IC50 (DLBCL cancer cell lines; average over the 13 DLBCL cell lines of Table 5) was 15.8 µM and the IC50 [10] was 15 µM.
